# Literature values in patent US12274789B2, “Oral compositions comprising methylprednisolone sodium succinate” (LABOMED PHARMACEUTICAL COMPANY S.A., priority 2018, dated 2025).
# Conditions: versus prednisolone
smiles,measurement,value
"C[C@H]1C[C@@H]2[C@H]([C@@H](O)C[C@@]3(C)[C@H]2CC[C@]3(O)C(=O)COC(=O)CCC(=O)[O-])[C@@]2(C)C=CC(=O)C=C12.[Na+] [methylprednisolone sodium succinate, pregna-1,4-diene-3,20dione,21-(3-carboxy-1-oxopropoxy)-11,17-dihydroxy-6-methyl-monosodium salt, (6α, 11β)]","anti-inflammatory potency, ratio to prednisolone",5 to 4
